In patent US9783524B2, “Protein tyrosine kinase modulators and methods of use” (BETTA PHARMACEUTICALS CO., LTD., priority 2013, dated 2017):
Like-named read-outs stand apart in the source and are kept apart here.

Columns and labels:
Type in all cases: biochemical, human
EGFR (L858R) (h) = tested on: EGFR (L858R) (h)
Description: (§1) Assay conditions included 10 μM ATP and 100 nM test compounds.
(§2) All reactions are initiated by the addition of the MgATP mix. After incubation for 40 minutes at room temperature, the reaction is stopped by the addition of 3% phosphoric acid solution. 10 μL of the reaction is then spotted onto a P30 filtermat and washed three times for 5 minutes in 75 mM phosphoric acid and once in methanol prior to drying and scintillation counting. […] The experiment is carried out in duplicate. The value for the control sample (DMSO) was set to 100%, and the values for the compound-treated samples were expressed as activity relative to the control sample.
(§3) (specific activity approx. 500 cpm/pmol, concentration as required) and 0.1 μM test compound.

EGFR (T790M) (h) = tested on: EGFR (T790M) (h)
Description: as §1
(§4) All reactions are initiated by the addition of the MgATP mix. After incubation for 40 minutes at room temperature, the reaction is stopped by the addition of 3% phosphoric acid solution. 10 μL of the reaction is then spotted onto a P30 filtermat and washed three times for 5 minutes in 75 mM phosphoric acid and once in methanol prior to drying and scintillation counting. This assay is performed by Millipore. The experiment is carried out in duplicate. The value for the control sample (DMSO) was set to 100%, and the values for the compound-treated samples were expressed as activity relative to the control sample.

ALK (h) = tested on: ALK (h)
Description: as §1, §4

EGFR (T790M, L858R) (h) = tested on: EGFR (T790M, L858R) (h)
Description: as §1, §2, §3

EGFR (h) = tested on: EGFR (h)
Description: as §1, §2, §3

[1] = 0.1 μM test compound, 10 μM ATP, remaining activity relative to DMSO control = 100%

SMILES	Activity (control) % EGFR (L858R) (h) (EGFR (L858R) (h); [1]) [%]	Activity (control) % EGFR (T790M) (h) (EGFR (T790M) (h); [1]) [%]	Activity (control) % ALK (h) (ALK (h); [1]) [%]	Activity (control) % EGFR (T790M, L858R) (h) (EGFR (T790M, L858R) (h); [1]) [%]	Activity (control) % EGFR (h) (EGFR (h); [1]) [%]	Activity (control) % EGFR (L858R) (h) (EGFR (L858R) (h)) [%]	Activity (control) % EGFR (T790M) (h) (EGFR (T790M) (h)) [%]	Activity (control) % ALK (h) (ALK (h)) [%]	Activity (control) % EGFR (T790M, L858R) (h) (EGFR (T790M, L858R) (h)) [%]	Activity (control) % EGFR (h) (EGFR (h)) [%]
C=C(CN1CCCC1)C(=O)Nc1ccc(OC)c(Nc2ncc(Cl)c(Nc3ccccc3C(=O)C(=O)N(C)C)n2)c1 [Example 97, N-(3-(5-chloro-4-(2-(2-(dimethylamino)-2-oxoacetyl)phenylamino)pyrimidin-2-ylamino)-4-methoxyphenyl)-2-(pyrrolidin-1-ylmethyl)acrylamide]	46	2	23	6	74	–	–	–	–	–
COc1ccc(NC(=O)/C=C/CN(C)C)cc1Nc1ncc(Cl)c(Nc2ccccc2C(=O)C(=O)N(C)C)n1 [Example 80, (E)-N-(3-(5-chloro-4-(2-(2-(dimethylamino)-2-oxoacetyl)phenylamino)pyrimidin-2-ylamino)-4-methoxyphenyl)-4-(dimethylamino)but-2-enamide]	43	42	10	7	–	–	–	–	–	–
COc1cc(Nc2ncc(Cl)c(Nc3ccccc3C(=O)C(=O)N(C)C)n2)ccc1N1CCN(C)CC1 [Example 61, 2-(2-(5-chloro-2-(3-methoxy-4-(4-methylpiperazin-1-yl)phenylamino)pyrimidin-4-ylamino)phenyl)-N,N-dimethyl-2-oxoacetamide]	–	–	–	–	–	70	54	5	13	–
COc1cc(N2CCN(C(C)=O)CC2)ccc1Nc1ncc(Cl)c(Nc2ccccc2C(=O)C(=O)N(C)C)n1 [Example 53, 2-(2-(2-(4-(4-acetylpiperazin-1-yl)-2-methoxyphenylamino)-5-chloropyrimidin-4-ylamino)phenyl)-N,N-dimethyl-2-oxoacetamide]	60	21	–	4	–	–	–	–	–	–
C=CC(=O)Nc1cccc(Nc2ncc(Cl)c(Nc3ccccc3C(=O)C(=O)N(C)C)n2)c1 [Example 40, N-(3-(5-chloro-4-(2-(2-(dimethylamino)-2-oxoacetyl)phenylamino)pyrimidin-2-ylamino)phenyl)acrylamide]	–	79	28	24	–	–	–	–	–	–
C=CC(=O)Nc1ccc(N2CCN(C)CC2)c(Nc2ncc(Cl)c(Nc3ccccc3C(=O)C(=O)N(C)C)n2)c1 [Example 135, N-(3-(5-chloro-4-(2-(2-(dimethylamino)-2-oxoacetyl)phenylamino)pyrimidin-2-ylamino)-4-(4-methylpiperazin-1-yl)phenyl)acrylamide]	–	96	80	95	–	–	–	–	–	–
CCC(=O)Nc1cc(Nc2ncc(Cl)c(Nc3ccccc3C(=O)C(=O)N(C)C)n2)ccc1OCCN(C)C [Example 120, N-(5-(5-chloro-4-(2-(2-(dimethylamino)-2-oxoacetyl)phenylamino)pyrimidin-2-ylamino)-2-(2-(dimethylamino)ethoxy)phenyl)propionamide]	76	62	8	14	–	–	–	–	–	–
C=C(CN1CCCCC1)C(=O)Nc1cc(Nc2ncc(Cl)c(Nc3ccccc3C(=O)C(=O)N(C)C)n2)ccc1N1CCOCC1 [Example 129, N-(5-(5-chloro-4-(2-(2-(dimethylamino)-2-oxoacetyl)phenylamino)pyrimidin-2-ylamino)-2-morpholinophenyl)-2-(piperidin-1-ylmethyl)acrylamide]	75	24	8	3	–	–	–	–	–	–
C=CC(=O)N1CCOc2ccc(Nc3ncc(Cl)c(Nc4ccccc4C(=O)C(=O)N(C)C)n3)cc21 [Example 87, 2-(2-(2-(4-acryloyl-3,4-dihydro-2H-benzo[b][1,4]oxazin-6-ylamino)-5-chloropyrimidin-4-ylamino)phenyl)-N,N-dimethyl-2-oxoacetamide]	–	–	–	–	–	–	–	5	–	–
C=CC(=O)Nc1cc(Nc2ncc(Cl)c(Nc3ccccc3C(=O)C(=O)N(C)C)n2)ccc1OCCN(C)C [Example 115, N-(5-(5-chloro-4-(2-(2-(dimethylamino)-2-oxoacetyl)phenylamino)pyrimidin-2-ylamino)-2-(2-(dimethylamino)ethoxy)phenyl)acrylamide]	–	–	6	–	–	–	–	–	–	–
C=CC(=O)Nc1cc(Nc2ncc(Cl)c(Nc3ccccc3C(=O)C(=O)N(CC)CC)n2)ccc1OC [Example 132, N-(5-(5-chloro-4-(2-(2-(diethylamino)-2-oxoacetyl)phenylamino)pyrimidin-2-ylamino)-2-methoxyphenyl)acrylamide]	–	77	16	30	–	–	–	–	–	–
CN(C)C(=O)C(=O)c1ccccc1Nc1nc(Nc2ccc(F)c(NC(=O)CCN3CCOCC3)c2)ncc1Cl [Example 123, N-(5-(5-chloro-4-(2-(2-(dimethylamino)-2-oxoacetyl)phenylamino)pyrimidin-2-ylamino)-2-fluorophenyl)-3-morpholinopropanamide]	94	84	17	31	–	–	–	–	–	–
C=CC(=O)Nc1ccc(OC)c(Nc2ncc(Cl)c(Nc3ccccc3C(=O)C(=O)N(CC)CC)n2)c1 [Example 131, N-(3-(5-chloro-4-(2-(2-(diethylamino)-2-oxoacetyl)phenylamino)pyrimidin-2-ylamino)-4-methoxyphenyl)acrylamide]	–	82	9	27	–	–	–	–	–	–
C=CC(=O)Nc1cccc(Nc2nc(Nc3ccc(N4CCN(C(C)=O)CC4)cc3OC)ncc2C(F)(F)F)c1 [CO-1686, reference compound]	–	–	–	–	–	97	21	–	7	92
C=CC(=O)Nc1cc(Nc2ncc(Cl)c(Nc3ccccc3C(=O)C(=O)NC)n2)ccc1OC [Example 64, N-(5-(5-chloro-4-(2-(2-(methylamino)-2-oxoacetyl)phenylamino)pyrimidin-2-ylamino)-2-methoxyphenyl)acrylamide]	100	79	47	39	–	–	–	–	–	–
COc1ccc(NC(=O)/C=C/CN2CCCCC2)cc1Nc1ncc(Cl)c(Nc2ccccc2C(=O)C(=O)N(C)C)n1 [Example 72, (E)-N-(3-(5-chloro-4-(2-(2-(dimethylamino)-2-oxoacetyl)phenylamino)pyrimidin-2-ylamino)-4-methoxyphenyl)-4-(piperidin-1-yl)but-2-enamide]	28	54	14	9	–	–	–	–	–	–
CCN(CC)C(=O)C(=O)c1ccccc1Nc1nc(Nc2ccc(N3CCN(C)CC3)c(OC)c2)ncc1Cl [Example 130, 2-(2-(5-chloro-2-(3-methoxy-4-(4-methylpiperazin-1-yl)phenylamino)pyrimidin-4-ylamino)phenyl)-N,N-diethyl-2-oxoacetamide]	98	84	13	22	–	–	–	–	–	–
COc1cc(Nc2ncc(Cl)c(Nc3ccccc3C(=O)C(=O)N(C)C)n2)ccc1N1CCOCC1 [Example 117, 2-(2-(5-chloro-2-(3-methoxy-4-morpholinophenylamino)pyrimidin-4-ylamino)phenyl)-N,N-dimethyl-2-oxoacetamide]	88	65	8	14	–	–	–	–	–	–
C=C(CN(C)CCN(C)C)C(=O)Nc1cccc(Nc2ncc(Cl)c(Nc3ccccc3C(=O)C(=O)N(C)C)n2)c1 [Example 125, N-(3-(5-chloro-4-(2-(2-(dimethylamino)-2-oxoacetyl)phenylamino)pyrimidin-2-ylamino)phenyl)-2-(((2-(dimethylamino)ethyl)(methyl)amino)methyl)acrylamide]	54	18	20	2	–	–	–	–	–	–
C=CC(=O)Nc1cc(Nc2ncc(Cl)c(Nc3ccccc3C(=O)C(=O)N(C)C)n2)ccc1N1CCN(C)CC1 [Example 111, N-(5-(5-chloro-4-(2-(2-(dimethylamino)-2-oxoacetyl)phenylamino)pyrimidin-2-ylamino)-2-(4-methylpiperazin-1-yl)phenyl)acrylamide]	76	59	8	11	–	–	–	–	–	–
